Where two headings read alike, the source gives them in different places.
Tested on: DLD-1 BRCA2−/− cells
Assay: Homologous recombination synthetic lethal inhibition of proliferation, DLD-1 BRCA2-/- (Cell Titre Glo 3D)
Assay type: cell-based
Settings: Homo sapiens, read-out: POLQ PD Prolif Lumin (converted)
How it was run: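 Read-out: CellTiter-Glo 3D luminescence, day 7 for wt DLD-1, day 12 for BRCA2−/−, about 8-9 population doublings each. Seeding 1,500 or 3,000 cells/mL respectively. Dose range 10 μM–0.51 nM, 3-fold, 10 points, with re-dosing on day 6. IC50 from curve fit.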

[1] = DLD-1, proliferation, luminescence, taken as DLD-1 BRCA2-/-
[2] = DLD-1, first proliferation column (c5), DLD-1 BRCA2-/-

Cc1ccnc(Cn2c(-c3ccc(OCC(=O)NC4(C)COC4)cc3Cl)nc3c(OC4(C)CC4)ncnc32)c1 [Example T476, 2-(3-chloro-4-(6-(1-methylcyclopropoxy)-9-((4-methylpyridin-2-yl)methyl)-9H-purin-8-yl)phenoxy)-N-(3-methyloxetan-3-yl)acetamide]
IC50 [1]: 0.251 µM

Cc1ccnc(Cn2c(-c3ccc(OCC(=O)N4CC(C)(O)C4)cc3Cl)nc3c(OC4(C)CC4)ncnc32)c1 [Example T477, 2-(3-chloro-4-(6-(1-methylcyclopropoxy)-9-((4-methylpyridin-2-yl)methyl)-9H-purin-8-yl)phenoxy)-1-(3-hydroxy-3-methylazetidin-1-yl)ethan-1-one]
IC50 [1]: 1.26 µM

Cc1ccnc(Cn2c(-c3ccc(OCC(=O)N[C@@H]4CCOC4)cc3Cl)nc3c(OC4(C)CC4)ncnc32)c1 [Example T478, (R)-2-(3-chloro-4-(6-(1-methylcyclopropoxy)-9-((4-methylpyridin-2-yl)methyl)-9H-purin-8-yl)phenoxy)-N-(tetrahydrofuran-3-yl)acetamide]
IC50 [1]: 0.501 µM

Cc1ccnc(Cn2c(-c3ccc(OCC(=O)NC4CC(O)C4)cc3Cl)nc3c(OC4(C)CC4)ncnc32)c1 (stereo not drawn) [Example T479, 2-(3-chloro-4-(6-(1-methylcyclopropoxy)-9-((4-methylpyridin-2-yl)methyl)-9H-purin-8-yl)phenoxy)-N-(3-hydroxycyclobutyl)acetamide]
IC50 [1]: 0.398 µM

Cc1ccnc(Cn2c(-c3ccc(OCC(=O)N(C)C4COC4)cc3Cl)nc3c(OC4(C)CC4)ncnc32)c1 [Example T480, 2-(3-chloro-4-(6-(1-methylcyclopropoxy)-9-((4-methylpyridin-2-yl)methyl)-9H-purin-8-yl)phenoxy)-N-methyl-N-(oxetan-3-yl)acetamide]
IC50 [1]: 0.501 µM

Cc1ccnc(Cn2c(-c3ccc(OCCN4CCOCC4=O)cc3Cl)nc3c(OC4(C)CC4)ncnc32)c1 [Example T481, 4-(2-(3-chloro-4-(6-(1-methylcyclopropoxy)-9-((4-methylpyridin-2-yl)methyl)-9H-purin-8-yl)phenoxy)ethyl)morpholin-3-one]
IC50 [1]: 0.316 µM

Cc1ccnc(Cn2c(-c3ccc(O[C@H]4CCN(C(=O)CO)C4)cc3Cl)nc3c(OC4(C)CC4)ncnc32)c1 [Example T483, (S)-1-(3-(3-chloro-4-(6-(1-methylcyclopropoxy)-9-((4-methylpyridin-2-yl)methyl)-9H-purin-8-yl)phenoxy)pyrrolidin-1-yl)-2-hydroxyethan-1-one]
IC50 [2]: 0.631 µM

CC1(Oc2ncnc3c2nc(-c2ccc(OCCN4C[C@H]5C[C@@H]4CN5)cc2Cl)n3Cc2cc(Cl)ccn2)CC1 [Example T485, 8-(4-(2-((1R,4R)-2,5-diazabicyclo[2.2.1]heptan-2-yl)ethoxy)-2-chlorophenyl)-9-((4-chloropyridin-2-yl)methyl)-6-(1-methylcyclopropoxy)-9H-purine]
IC50 [2]: 0.501 µM

CC1(Oc2ncnc3c2nc(-c2ccc(OCCN4CC5(CCN5)C4)cc2Cl)n3Cc2cc(Cl)ccn2)CC1 [Example T486, 8-(4-(2-(1,6-diazaspiro[3.3]heptan-6-yl)ethoxy)-2-chlorophenyl)-9-((4-chloropyridin-2-yl)methyl)-6-(1-methylcyclopropoxy)-9H-purine]
IC50 [2]: 0.501 µM

CC1(Oc2ncnc3c2nc(-c2ccc(OCCN4C[C@@H]5C[C@H]4CN5)cc2Cl)n3Cc2cc(Cl)ccn2)CC1 [Example T487, 8-(4-(2-((1S,4S)-2,5-diazabicyclo[2.2.1]heptan-2-yl)ethoxy)-2-chlorophenyl)-9-((4-chloropyridin-2-yl)methyl)-6-(1-methylcyclopropoxy)-9H-purine]
IC50 [2]: 0.398 µM

Cc1ccnc(Cn2c(-c3ccc(N4CCC5(CNC5)C4)cc3Cl)nc3c(OC4(C)CC4)ncnc32)c1 [Example T490, 8-(2-chloro-4-(2,6-diazaspiro[3.4]octan-6-yl)phenyl)-6-(1-methylcyclopropoxy)-9-((4-methylpyridin-2-yl)methyl)-9H-purine]
IC50 [2]: 2 µM

Cc1ccnc(Cn2c(-c3ccc(N4CCC5NCCC54)cc3Cl)nc3c(OC4(C)CC4)ncnc32)c1 (stereo not drawn) [Example T492, 8-(2-chloro-4-(hexahydropyrrolo[3,2-b]pyrrol-1(2H)-yl)phenyl)-6-(1-methylcyclopropoxy)-9-((4-methylpyridin-2-yl)methyl)-9H-purine]
IC50 [2]: 0.398 µM

Cc1ccnc(Cn2c(-c3ccc(N4C[C@H]5CCN[C@H]5C4)cc3Cl)nc3c(OC4(C)CC4)ncnc32)c1 [Example T494, 8-(2-chloro-4-((3aR,6aR)-hexahydropyrrolo[3,4-b]pyrrol-5(1H)-yl)phenyl)-6-(1-methylcyclopropoxy)-9-((4-methylpyridin-2-yl)methyl)-9H-purine]
IC50 [2]: 0.316 µM

CNC(=O)[C@H]1CCN(c2ccc(-c3nc4c(OC5(C)CC5)ncnc4n3Cc3cc(C)ccn3)c(Cl)c2)C1 [Example T497, (S)-1-(3-chloro-4-(6-(1-methylcyclopropoxy)-9-((4-methylpyridin-2-yl)methyl)-9H-purin-8-yl)phenyl)-N-methylpyrrolidine-3-carboxamide]
IC50 [2]: 0.501 µM

Cc1ccnc(Cn2c(-c3ccc(OCCN4CCNCC4=O)cc3Cl)nc3c(OC4(C)CC4)ncnc32)c1 [Example T498, 1-(2-(3-chloro-4-(6-(1-methylcyclopropoxy)-9-((4-methylpyridin-2-yl)methyl)-9H-purin-8-yl)phenoxy)ethyl)piperazin-2-one]
IC50 [2]: 0.316 µM

Cc1ccnc(Cn2c(-c3ccc(OCCN4CCNC(=O)C4)cc3Cl)nc3c(OC4(C)CC4)ncnc32)c1 [Example T499, 4-(2-(3-chloro-4-(6-(1-methylcyclopropoxy)-9-((4-methylpyridin-2-yl)methyl)-9H-purin-8-yl)phenoxy)ethyl)piperazin-2-one]
IC50 [2]: 0.316 µM

CNC(=O)N1CC[C@@H](Oc2ccc(-c3nc4c(OC5(C)CC5)ncnc4n3Cc3cc(C)ccn3)c(Cl)c2)C1 [Example T501, (R)-3-(3-chloro-4-(6-(1-methylcyclopropoxy)-9-((4-methylpyridin-2-yl)methyl)-9H-purin-8-yl)phenoxy)-N-methylpyrrolidine-1-carboxamide]
IC50 [2]: 0.794 µM

Cc1ccnc(Cn2c(-c3ccc(CC(=O)NCC(C)(C)O)cc3Cl)nc3c(OC4(C)CC4)ncnc32)c1 [Example T515, 2-(3-chloro-4-(6-(1-methylcyclopropoxy)-9-((4-methylpyridin-2-yl)methyl)-9H-purin-8-yl)phenyl)-N-(2-hydroxy-2-methylpropyl)acetamide]
IC50 [2]: 0.631 µM

Cc1ccnc(Cn2c(-c3ccc(OCC(=O)N[C@H](C)CCO)cc3Cl)nc3c(OC4(C)CC4)ncnc32)c1 [Example T516, (R)-2-(3-chloro-4-(6-(1-methylcyclopropoxy)-9-((4-methylpyridin-2-yl)methyl)-9H-purin-8-yl)phenoxy)-N-(4-hydroxybutan-2-yl)acetamide]
IC50 [2]: 0.2 µM

Cc1ccnc(Cn2c(-c3ccc(OCC(=O)NCC(C)(C)O)cc3Cl)nc3c(OC4(C)CC4)ncnc32)c1 [Example T517, 2-(3-chloro-4-(6-(1-methylcyclopropoxy)-9-((4-methylpyridin-2-yl)methyl)-9H-purin-8-yl)phenoxy)-N-(2-hydroxy-2-methylpropyl)acetamide]
IC50 [2]: 0.398 µM

CC[C@H](CO)NC(=O)COc1ccc(-c2nc3c(OC4(C)CC4)ncnc3n2Cc2cc(C)ccn2)c(Cl)c1 [Example T518, (R)-2-(3-chloro-4-(6-(1-methylcyclopropoxy)-9-((4-methylpyridin-2-yl)methyl)-9H-purin-8-yl)phenoxy)-N-(1-hydroxybutan-2-yl)acetamide]
IC50 [2]: 0.398 µM

Reference: US20250195530A1, “POLQ INHIBITORS” (ASTRAZENECA AB, priority 2022, published 2025)
